Values of other authors, collected in patent US7052717B2, “Storage stable thyroxine active drug formulations and methods for their production” (Mylan Pharmaceuticals Inc., priority 2001, dated 2006).

Conditions: high humidity, light or high temperature; Won, Pharm. Res. 9(1):131-137, 1992

For `N[C@@H](Cc1cc(I)c(Oc2cc(I)c(O)c(I)c2)c(I)c1)C(=O)O` [Levothyroxine sodium, levothyroxine sodium], the “stability of drug substance” value is listed as “quite unstable, hygroscopic and degrades rapidly when subjected to high humidity, light or high temperature”.
